Measurements as given in the supplement of paper PMC10307832.

Tests used:
Assay in all cases: relative viability (nuclei count vs DMSO), 5 days (fraction); higher = more cells survive
[1] = compound: CC1=CC=C(C=C1)C(=O)CN2C3=C(CCCC3)SC2=N [Pifithrin_alpha] + COc1cc2c(Oc3ccc(NC(=O)C4(C(=O)Nc5ccc(F)cc5)CC4)cc3F)ccnc2cc1OCCCN1CCOCC1 [Foretinib] (partner 0.25 µM)
Method in brief: (§1)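 The day after seeding in 1536-well plates, lung cancer cell lines were treated by pin tool with a single drug, or with a fixed anchor-drug dose together with five library-drug doses (not always all listed) in √10 steps. After 5 days, a combined fix-and-stain solution (final 0.05% Triton X-100, 1% formaldehyde, 1 ug/ml Hoechst) was added. Nuclei counted on 4× images gave relative viability as treated counts over vehicle counts, reported as the median of duplicate plates.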

[2] = compound: Nc1nc(Nc2ccc3c(c2)CC[C@@H](N2CCCC2)CC3)nn1-c1cc2c(nn1)-c1ccccc1CCC2 [Bemcentinib] + CC(=O)Nc1cccc(-n2c(=O)n(C3CC3)c(=O)c3c(Nc4ccc(I)cc4F)n(C)c(=O)c(C)c32)c1 [Trametinib] (partner 0.02 µM)
Method in brief: as §1

[3] = compound: CNC(=O)c1ccccc1Sc1ccc2c(/C=C/c3ccccn3)n[nH]c2c1 [Axitinib] + CC1(C)CCC(c2ccc(Cl)cc2)=C(CN2CCN(c3ccc(C(=O)NS(=O)(=O)c4ccc(N[C@H](CCN5CCOCC5)CSc5ccccc5)c(S(=O)(=O)C(F)(F)F)c4)cc3)CC2)C1 [Navitoclax] (partner 0.5 µM)
Method in brief: as §1

[4] = compound: CNC(=O)c1ccccc1Sc1ccc2c(/C=C/c3ccccn3)n[nH]c2c1 [Axitinib] + Cc1nc(NC(=O)N2CCC[C@H]2C(N)=O)sc1-c1ccnc(C(C)(C)C(F)(F)F)c1 [Alpelisib] (partner 2 µM)
Method in brief: as §1

Cell Line	relative viability ([1]; first compound 1 µM)	relative viability ([1]; first compound 3.162 µM)	relative viability ([1]; first compound 10 µM)	relative viability ([1]; first compound 31.62 µM)	relative viability ([1]; first compound 100 µM)	relative viability ([2]; first compound 0.04 µM)	relative viability ([2]; first compound 0.1265 µM)	relative viability ([2]; first compound 0.4 µM)	relative viability ([2]; first compound 1.265 µM)	relative viability ([2]; first compound 4 µM)	relative viability ([3]; first compound 0.005 µM)	relative viability ([3]; first compound 0.01581 µM)	relative viability ([3]; first compound 0.05 µM)	relative viability ([3]; first compound 0.1581 µM)	relative viability ([3]; first compound 0.5 µM)	relative viability ([4]; first compound 0.005 µM)	relative viability ([4]; first compound 0.01581 µM)	relative viability ([4]; first compound 0.05 µM)	relative viability ([4]; first compound 0.1581 µM)	relative viability ([4]; first compound 0.5 µM)
NCI-H1623	0.825	0.811	0.759	0.628	0.669															
NCI-H1648						0.636	0.455	0.477	0.481	0.408										
NCI-H1650		1.2	1.04	0.837	0.853	0.483	0.684	0.617	0.594	0.459	1.27	0.981	1.35	1.24	1.41					
NCI-H1703	0.285	0.336	0.374	0.34	0.266						0.868	0.36	0.306	0.212	0.305	0.264	0.214	0.186	0.171	0.243
NCI-H1792						0.461	0.422	0.549	0.569	0.43	0.637	0.527	0.62	0.562	0.366	0.797	0.715	0.671	0.699	0.683
NCI-H2342	1.14	1.01	0.953	1.09	1.01	0.897	0.904	0.895	0.988	0.88										
SW 900	0.878	0.724	0.836	0.837	0.424	0.56	0.947	0.927	0.953	0.933										
